In ChEMBL document CHEMBL5252512, “Recent Progress in the Development of HIV-1 Protease Inhibitors for the Treatment of HIV/AIDS” (J Med Chem, 2016):

System: not listed separately
Experiment: Apparent permeability in rat astrocytes/rat pericytes/monkey endothelial cells triple cell co-culture system incubated for 30 mins by spectrophotometric analysis
Assay type: ADME, cell-based
Conditions: not given
Work on Cn1c(=O)c2c(ncn2C)n(C)c1=O [CAFFEINE] yielded a Papp at 0.5 h of 100 ×10⁻⁶ cm/s.

System: Human immunodeficiency virus 1
Experiment: Antiviral activity against HIV1 LAI infected in human MT2 cells assessed as inhibition of virus-induced cytopathic effect by MTT assay
Assay type: functional, organism-based
Conditions: Human immunodeficiency virus 1, LAI
CC(C)CN(C[C@@H](O)[C@H](Cc1ccccc1)NC(=O)O[C@H]1CO[C@H]2OCC[C@H]21)S(=O)(=O)c1ccc(C(N)=O)cc1 showed an EC50 of 93 nM.
CC(C)CN(C[C@@H](O)[C@H](Cc1ccccc1)NC(=O)O[C@H]1CO[C@H]2OCC[C@H]21)S(=O)(=O)c1ccc(C(=O)O)cc1 showed an EC50 greater than 10000 nM.

Target: Human immunodeficiency virus type 1 protease (Human immunodeficiency virus 1, UniProt Q72874)
Experiment: Binding affinity to HIV1 recombinant wild type protease expressed in Escherichia coli BL21(DE3) assessed as inhibition constant
Conditions: not given
CC(C)CN(C[C@@H](O)[C@H](Cc1ccccc1)NC(=O)O[C@H]1CO[C@H]2OCC[C@H]21)S(=O)(=O)c1ccc(C(N)=O)cc1 showed a Ki of 0.0089 nM.
Work on CC(C)CN(C[C@@H](O)[C@H](Cc1ccccc1)NC(=O)O[C@H]1CO[C@H]2OCC[C@H]21)S(=O)(=O)c1ccc(C(=O)O)cc1 yielded a Ki of 0.0127 nM.
